For assay [1], the system named is elastase-induced emphysema. The assay can be described thus: Alveolar repair in rat model of elastase-induced emphysema, intraperitoneal. Type of assay: in vivo, male Sprague Dawley rats. The arrangement: Alveolar Area: unit not given here. Here is the method: Animals were divided into treatment groups of approximately eight. […] Three weeks post injury ATRA or a RAR selective agonist was dissolved in DMSO (20 mg/ml) and stored at -20 C. Fresh working stocks were prepared fresh daily by dilution in corn oil to a final concentration of 2 mg/ml. […] Control groups were challenged with elastase and 21 days later treated with Vehicle (DMSO/PBS) for 14 days. Animals were sacrificed 24 hours after the last dose of by exsanguination under deep anesthesia. Blood was collected at time of exanguination for analysis of changes in blood chemistry from respective treatments. The lungs were inflated with 10% neutral buffered formalin by intratracheal instillation at a constant rate (1 ml/gram body mass/min). The lung was excised and immersed in fixative for 24 hours prior to processing. Standard methods were used to prepare 5 um paraffin sections. Sections were stained with Hematoxylin and Eosin (H%E). Computerized Morphometric analysis was performed to determine the average alveolar size and alveolar number.

The next assay relates to experimental emphysema. The assay can be described thus: Alveolar repair in rat experimental emphysema, oral dosing. Type of assay: in vivo, rats. The conditions noted are these: 1 mg/kg/PO daily for two weeks. On the procedure:
Three (3) weeks post injury animals were treated with vehicle (Capmul solution) or retinoids prepared in Capmul and dosed orally at 1, 3, and 10 mg/kg body weight. Animals were treated for 14 days prior to termination of study.
Dosage was at 1 mg/kg/PO daily for two weeks.

The target in a further assay is T1, RARα (Homo sapiens, UniProt P10276).
T1 sequence (P10276 1-462): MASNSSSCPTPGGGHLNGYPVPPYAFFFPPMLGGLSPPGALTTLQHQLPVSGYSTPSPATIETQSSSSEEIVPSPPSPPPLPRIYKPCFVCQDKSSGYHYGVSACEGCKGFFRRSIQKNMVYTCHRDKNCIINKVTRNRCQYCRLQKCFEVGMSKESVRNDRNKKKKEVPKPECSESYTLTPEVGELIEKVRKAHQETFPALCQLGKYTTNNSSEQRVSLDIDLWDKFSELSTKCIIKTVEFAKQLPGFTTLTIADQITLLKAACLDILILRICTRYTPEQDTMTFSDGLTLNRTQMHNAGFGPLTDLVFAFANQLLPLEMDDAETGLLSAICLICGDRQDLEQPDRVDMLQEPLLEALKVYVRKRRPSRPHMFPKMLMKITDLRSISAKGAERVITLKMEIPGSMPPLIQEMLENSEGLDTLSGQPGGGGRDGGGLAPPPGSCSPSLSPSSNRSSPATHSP
The assay can be described thus: Binding, RARα (ligand binding assay). The note with it: Table II. From the text:
The RARγ agonist selectivity of a compound can be determined by routine ligand binding assays known to one of skill in the art such as described in C. Apfel et al., Proc. Nat.

On to `CCCCCCc1cc2c(cc1/C=C/c1ccc(C(=O)O)cc1)C(C)(C)CCC2(C)C` [RAR Agonist 3], for which the “% Repair” value in assay [1] (0.5 mg/kg ip once daily, from 21 days post injury, 14 days) is more than 70%; in the assay with experimental emphysema it was 73.7%. The “Alveolar Area” value in assay [1] (0.5 mg/kg ip once daily, from 21 days post injury, 14 days, naive 1637 +/- 153, elastase + vehicle 3570 +/- 319) is reported as 1929 +/- 150. Besides, the “alveolar repair (in words)” value in assay [1] (elastase-treated rats, 0.5 mg/kg ip) is “markedly induce alveolar repair”. Besides, in assay [1] (rat lung damaged by elastase and then treated, compared to normal rat lung), the “light micrographs of lung sections (in words)” value is on record as “showed alveolar area similar to the normal rat lung”. The compound further showed an IC50 at RARα of 2700 nM.

One may read the IC50 as the concentration at which inhibition is half-maximal.

Values taken from US6300350A, “Treatment of emphysema using RARy selective retinoid agonists” (priority 2000, dated 2001).
